Data taken from ChEMBL document CHEMBL1250451, “Mechanistic insights into a Ca2+-dependent family of alpha-mannosidases in a human gut symbiont” (Nat Chem Biol, 2010).

Tests used:
Assay type in all cases: protein assay
[1] = biological target: T1, Alpha-1,2-mannosidase (BT_2199) (Bacteroides thetaiotaomicron) (UniProt Q8A5N9); experiment: Activity of Bacteroides thetaiotaomicron GH92 alpha-mannosidase 2199 assessed as recovery of enzyme activity at 1 mM relative to enzyme activity in presence of calcium
T1 sequence (whole entry): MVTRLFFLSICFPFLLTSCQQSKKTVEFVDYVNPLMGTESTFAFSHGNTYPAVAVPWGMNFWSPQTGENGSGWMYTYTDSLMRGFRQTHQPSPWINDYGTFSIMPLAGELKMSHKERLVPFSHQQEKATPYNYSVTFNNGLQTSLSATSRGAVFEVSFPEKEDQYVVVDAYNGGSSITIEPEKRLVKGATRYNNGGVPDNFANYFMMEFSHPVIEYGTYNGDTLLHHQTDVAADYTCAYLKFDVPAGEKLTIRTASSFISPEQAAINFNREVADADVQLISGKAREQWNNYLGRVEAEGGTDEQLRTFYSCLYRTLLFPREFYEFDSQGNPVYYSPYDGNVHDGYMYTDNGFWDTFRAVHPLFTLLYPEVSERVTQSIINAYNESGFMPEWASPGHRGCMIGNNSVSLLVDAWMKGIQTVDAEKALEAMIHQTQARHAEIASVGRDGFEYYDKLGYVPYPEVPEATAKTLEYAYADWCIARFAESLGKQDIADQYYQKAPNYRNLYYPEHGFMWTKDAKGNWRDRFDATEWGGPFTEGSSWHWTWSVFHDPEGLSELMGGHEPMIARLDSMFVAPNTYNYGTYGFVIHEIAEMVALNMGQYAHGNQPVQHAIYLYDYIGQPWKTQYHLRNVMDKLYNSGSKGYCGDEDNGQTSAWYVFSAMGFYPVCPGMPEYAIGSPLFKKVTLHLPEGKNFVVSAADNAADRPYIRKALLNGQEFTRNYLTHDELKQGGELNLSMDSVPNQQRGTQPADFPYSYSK

[2] = biological target: T1, Alpha-1,2-mannosidase (BT_2199) (Bacteroides thetaiotaomicron); experiment: Activity of Bacteroides thetaiotaomicron GH92 alpha-mannosidase 2199 assessed as recovery of enzyme activity at 1 mM in presence of 7 mM Sr(2+) ions and in presence of 5 mM EDTA in 100 mM pH 7 MOPS buffer relative to enzyme activity in presence of calcium
[3] = biological target: T1, Alpha-1,2-mannosidase (BT_2199) (Bacteroides thetaiotaomicron); experiment: Activity of Bacteroides thetaiotaomicron GH92 alpha-mannosidase 2199 assessed as recovery of enzyme activity at 1 mM in absence of metal and in presence of 5 mM EGTA in 100 mM pH 7 MOPS buffer relative to enzyme activity in presence of calcium
[4] = biological target: T1, Alpha-1,2-mannosidase (BT_2199) (Bacteroides thetaiotaomicron); experiment: Activity of Bacteroides thetaiotaomicron GH92 alpha-mannosidase 2199 assessed as recovery of enzyme activity at 1 mM in presence of 7 mM Mg(2+) ions and in presence of 5 mM EGTA in 100 mM pH 7 MOPS buffer relative to enzyme activity in presence of calcium
[5] = biological target: T1, Alpha-1,2-mannosidase (BT_2199) (Bacteroides thetaiotaomicron); experiment: Activity of Bacteroides thetaiotaomicron GH92 alpha-mannosidase 2199 assessed as recovery of enzyme activity at 1 mM in presence of 7 mM Mn(2+) ions and in presence of 5 mM EGTA in 100 mM pH 7 MOPS buffer relative to enzyme activity in presence of calcium
[6] = biological target: T1, Alpha-1,2-mannosidase (BT_2199) (Bacteroides thetaiotaomicron); experiment: Activity of Bacteroides thetaiotaomicron GH92 alpha-mannosidase 2199 assessed as recovery of enzyme activity at 1 mM in presence of 7 mM Ba(2+) ions and in presence of 5 mM EGTA in 100 mM pH 7 MOPS buffer relative to enzyme activity in presence of calcium
[7] = biological target: T1, Alpha-1,2-mannosidase (BT_2199) (Bacteroides thetaiotaomicron); experiment: Activity of Bacteroides thetaiotaomicron GH92 alpha-mannosidase 2199 assessed as recovery of enzyme activity at 1 mM in presence of 7 mM Sc(3+) ions and in presence of 5 mM EGTA in 100 mM pH 7 MOPS buffer relative to enzyme activity in presence of calcium
[8] = biological target: T2, Alpha-1,2-mannosidase (BT_3990) (Bacteroides thetaiotaomicron) (UniProt Q8A0N1); experiment: Activity of Bacteroides thetaiotaomicron GH92 alpha-mannosidase 3990 assessed as recovery of enzyme activity at 1 mM in presence of 7 mM Co(2+) ions and in presence of 5 mM EDTA in 100 mM pH 7 MOPS buffer relative to enzyme activity in presence of calcium
T2 sequence (whole entry): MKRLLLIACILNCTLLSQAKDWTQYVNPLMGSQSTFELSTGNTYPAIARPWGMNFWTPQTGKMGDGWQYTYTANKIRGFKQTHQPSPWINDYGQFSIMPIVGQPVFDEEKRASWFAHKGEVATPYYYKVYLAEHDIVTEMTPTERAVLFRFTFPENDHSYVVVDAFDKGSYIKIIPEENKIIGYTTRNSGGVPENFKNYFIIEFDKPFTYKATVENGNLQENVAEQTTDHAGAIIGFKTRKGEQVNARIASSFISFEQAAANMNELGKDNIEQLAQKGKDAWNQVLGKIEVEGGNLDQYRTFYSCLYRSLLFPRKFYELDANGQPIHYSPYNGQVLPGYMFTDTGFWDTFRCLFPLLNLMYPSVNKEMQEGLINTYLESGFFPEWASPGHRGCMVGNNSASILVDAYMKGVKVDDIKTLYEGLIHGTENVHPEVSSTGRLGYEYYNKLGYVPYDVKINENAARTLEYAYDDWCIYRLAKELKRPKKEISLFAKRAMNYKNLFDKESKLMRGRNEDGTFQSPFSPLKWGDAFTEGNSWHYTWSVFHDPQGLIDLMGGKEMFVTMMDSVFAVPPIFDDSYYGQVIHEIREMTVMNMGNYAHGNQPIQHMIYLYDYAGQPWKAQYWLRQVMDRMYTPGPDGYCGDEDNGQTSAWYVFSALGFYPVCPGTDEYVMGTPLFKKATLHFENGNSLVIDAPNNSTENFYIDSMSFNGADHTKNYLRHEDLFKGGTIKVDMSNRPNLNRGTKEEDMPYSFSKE

[9] = biological target: T2, Alpha-1,2-mannosidase (BT_3990) (Bacteroides thetaiotaomicron); experiment: Activity of Bacteroides thetaiotaomicron GH92 alpha-mannosidase 3990 assessed as recovery of enzyme activity at 1 mM in presence of 7 mM Ti(3+) ions and in presence of 5 mM EDTA in 100 mM pH 7 MOPS buffer relative to enzyme activity in presence of calcium
[10] = biological target: T2, Alpha-1,2-mannosidase (BT_3990) (Bacteroides thetaiotaomicron); experiment: Activity of Bacteroides thetaiotaomicron GH92 alpha-mannosidase 3990 assessed as recovery of enzyme activity at 1 mM in presence of 7 mM V(3+) ions and in presence of 5 mM EDTA in 100 mM pH 7 MOPS buffer relative to enzyme activity in presence of calcium
[11] = biological target: T2, Alpha-1,2-mannosidase (BT_3990) (Bacteroides thetaiotaomicron); experiment: Activity of Bacteroides thetaiotaomicron GH92 alpha-mannosidase 3990 assessed as recovery of enzyme activity at 1 mM in presence of 7 mM Mg(2+) ions and in presence of 5 mM EGTA in 100 mM pH 7 MOPS buffer relative to enzyme activity in presence of calcium
[12] = biological target: T2, Alpha-1,2-mannosidase (BT_3990) (Bacteroides thetaiotaomicron); experiment: Activity of Bacteroides thetaiotaomicron GH92 alpha-mannosidase 3990 assessed as recovery of enzyme activity at 1 mM in presence of 7 mM V(3+) ions and in presence of 5 mM EGTA in 100 mM pH 7 MOPS buffer relative to enzyme activity in presence of calcium

| Activity [1] [%] | Activity [2] [%] | Activity [3] [%] | Activity [4] [%] | Activity [5] [%] | Activity [6] [%] | Activity [7] [%] | Activity [8] [%] | Activity [9] [%] | Activity [10] [%] | Activity [11] [%] | Activity [12] [%] | Structure (SMILES) |
| --- | --- | --- | --- | --- | --- | --- | --- | --- | --- | --- | --- | --- |
| 63 |  |  |  |  |  |  |  |  |  |  |  | OC[C@H]1O[C@H](OC[C@H]2O[C@H](O)[C@@H](O)[C@@H](O)[C@@H]2O)[C@@H](O)[C@@H](O)[C@@H]1O |
|  | 31 | 0 | 0 | 6 | 0 | 0 | 12 | 0 | 0 | 0 | 0 | O=[N+]([O-])c1ccc(O[C@H]2O[C@H](CO)[C@@H](O)[C@H](O)[C@@H]2O)cc1 |
